Patent publication US20260306680A1, “RADIOLABELED COMPOUNDS TARGETING THE PROSTATE-SPECIFIC MEMBRANE ANTIGEN” (PROVINCIAL HEALTH SERVICES AUTHORITY, priority 2022, published 2026)
Where two headings read alike, the source gives them in different places.

Key:
[1] = Ex vivo biodistribution in mice bearing LNCaP tumor xenografts; parameters: species or system mouse (male NOD-scid IL2Rg^null (NSG)); conditions: mouse, iv, mean ± SD
Experimental: (§1) All imaging and biodistribution studies used male NOD-scid IL2Rg^null (NSG) mice and conducted according to the guidelines established by the Canadian Council on Animal Care and approved by Animal Ethics Committee of the University of British Columbia. For tumor inoculations, mice were anesthetized via inhalation of 2% isoflurane in oxygen and implanted subcutaneously with 5×10^6 LNCaP cells below the left shoulder. Imaging and biodistribution studies were performed only after tumors grew to 5-8 mm in diameter.
(§2) For PET/CT imaging studies, approximately 5 MBq of the ^18F-labeled tracer was injected through the tail vein. While for ex vivo biodistribution studies, mice were injected with around 2 MBq of the ^18F-labeled tracer through the tail vein. Mice were allowed to recover and roam freely in the cages after injecting the tracer. At 45 min post-injection, imaging mouse were sedated again and positioned on the scanner. A 10 min CT scan was conducted first to allow for localization and attenuation correction for later reconstruction of PET images. A 10 min PET image was acquired following CT scan. Heating pads were used during the entire procedure to keep the mice warm and circulate the blood. At 1 h post-injection, all mice for biodistribution study were euthanized with blood drawn from heart, and all tissues of interest were collected, rinsed with PBS, blotted dry, weighed, and counted using an automated gamma counter. The uptake in each organ/tissue was normalized to the injected dose and expressed as the percentage of the injected dose per gram of tissue (% ID/g).
(§3) Representative maximum intensity projection PET images of ^18F-KLF1007-pyridine-BF3 and ^18F-KL01040 acquired at 1 h post-injection from LNCaP tumor-bearing mice is enumerated in Table 4 and shown in FIG. 1. Representative maximum intensity projection PET images of ^18F-KL01120 and ^18F-KL01130 acquired at 1 h post-injection from LNCaP tumor-bearing mice is also enumerated in Table 5 and shown in FIG. 2 (^18F-KL1120) and enumerated in Table 6 and shown in FIG. 3 (^18F-KL01130).

LNCaP tumor xenografts = assay: as above; parameters: species or system mouse (male NOD-scid IL2Rg^null (NSG)); conditions: mean ± SD
Experimental: as §1, §2, §3

[2] = adrenal glands, 1 h post-injection, read-out: Adrenal Glands uptake
[3] = blood, 1 h post-injection, read-out: Blood uptake
[4] = bone, 1 h post-injection, read-out: Bone uptake
[5] = brain, 1 h post-injection, read-out: Brain uptake
[6] = fat, 1 h post-injection, read-out: Fat uptake
[7] = heart, 1 h post-injection, read-out: Heart uptake
[8] = kidneys, 1 h post-injection, read-out: Kidneys uptake
[9] = lacrimal glands, 1 h post-injection, read-out: Lacrimal Glands uptake
[10] = liver, 1 h post-injection, read-out: Liver uptake
[11] = lncap tumor, 1 h post-injection, read-out: LNCaP Tumor uptake
[12] = lungs, 1 h post-injection, read-out: Lungs uptake
[13] = muscle, 1 h post-injection, read-out: Muscle uptake
[14] = pancreas, 1 h post-injection, read-out: Pancreas uptake
[15] = salivary glands, 1 h post-injection, read-out: Salivary Glands uptake
[16] = seminal glands, 1 h post-injection, read-out: Seminal Glands uptake
[17] = small intestine, 1 h post-injection, read-out: Small Intestine uptake
[18] = spleen, 1 h post-injection, read-out: Spleen uptake
[19] = stomach, 1 h post-injection, read-out: Stomach uptake
[20] = testes, 1 h post-injection, read-out: Testes uptake
[21] = thyroid, 1 h post-injection, read-out: Thyroid uptake
[22] = 1 h Blocked (co-injection of 2-PMPA, 0.5 mg)

O=C(O)CCC[C@H](NC(=O)N[C@@H](CCCCNC(=O)[C@H](Cc1c2ccccc2cc2ccccc12)NC(=O)[C@H]1CC[C@H](CNC(=O)[C@H](CCCCNC(=O)c2ccc(F)nc2)NC(=O)CN(CC(=O)O)CC(=O)O)CC1)C(=O)O)C(=O)O [^18F-KL01040] showed a tissue uptake at 1 h [1, 2] of 1.05 ± 0.26 %ID/g, a tissue uptake at 1 h [1, 3] of 1.96 ± 0.37 %ID/g and a tissue uptake at 1 h [1, 4] of 0.6 ± 0.18 %ID/g. It also gave a tissue uptake at 1 h [1, 5] of 0.11 ± 0.08 %ID/g, a tissue uptake at 1 h [1, 6] of 0.61 ± 0.15 %ID/g and a tissue uptake at 1 h [1, 7] of 0.56 ± 0.14 %ID/g. For the same compound, the tissue uptake at 1 h [1, 8] was 33.2 ± 10.1 %ID/g, the tissue uptake at 1 h [1, 9] was 0.23 ± 0.06 %ID/g and the tissue uptake at 1 h [1, 10] was 0.58 ± 0.15 %ID/g. The tissue uptake at 1 h [1, 11] was 11.2 ± 2.06 %ID/g, the tissue uptake at 1 h [1, 12] was 1.56 ± 0.4 %ID/g and the tissue uptake at 1 h [1, 13] was 0.29 ± 0.06 %ID/g. The tissue uptake at 1 h [1, 14] was 0.38 ± 0.05 %ID/g, the tissue uptake at 1 h [1, 15] was 0.79 ± 0.11 %ID/g and the tissue uptake at 1 h [1, 16] was 0.26 ± 0.06 %ID/g. For the same compound, the tissue uptake at 1 h [1, 17] was 2.54 ± 0.5 %ID/g, the tissue uptake at 1 h [1, 18] was 0.83 ± 0.41 %ID/g and the tissue uptake at 1 h [1, 19] was 0.2 ± 0.07 %ID/g. The tissue uptake at 1 h ([1]; tail, 1 h post-injection, read-out: Tail uptake) was 1.31 ± 0.41 %ID/g, the tissue uptake at 1 h [1, 20] was 0.47 ± 0.07 %ID/g and the tissue uptake at 1 h [1, 21] was 0.6 ± 0.06 %ID/g.
O=C(O)CC[C@H](NC(=O)N[C@@H](CCCCNC(=O)[C@H](Cc1c2ccccc2cc2ccccc12)NC(=O)[C@H]1CC[C@H](CNC(=O)[C@H](CCNC(=O)c2ccc(F)nc2)NC(=O)CCC(=O)N(CC(=O)O)CC(=O)O)CC1)C(=O)O)C(=O)O [^18F-KL01120] gave a tissue uptake at 1 h ([1]; adrenal glands, 1 h Blocked (co-injection of 2-PMPA, 0.5 mg), read-out: Adrenal Glands uptake) of 0.48 ± 0.21 %ID/g, a tissue uptake at 1 h [1, 2] of 11.2 ± 4.71 %ID/g and a tissue uptake at 1 h ([1]; blood, 1 h Blocked (co-injection of 2-PMPA, 0.5 mg), read-out: Blood uptake) of 0.86 ± 0.2 %ID/g. For the same compound, the tissue uptake at 1 h [1, 3] was 0.71 ± 0.14 %ID/g, the tissue uptake at 1 h ([1]; bone, 1 h Blocked (co-injection of 2-PMPA, 0.5 mg), read-out: Bone uptake) was 0.35 ± 0.23 %ID/g and the tissue uptake at 1 h [1, 4] was 0.92 ± 0.46 %ID/g. It also gave a tissue uptake at 1 h ([1]; brain, 1 h Blocked (co-injection of 2-PMPA, 0.5 mg), read-out: Brain uptake) of 0.03 %ID/g, a tissue uptake at 1 h [1, 5] of 0.05 ± 0.01 %ID/g and a tissue uptake at 1 h ([1]; fat, 1 h Blocked (co-injection of 2-PMPA, 0.5 mg), read-out: Fat uptake) of 0.18 ± 0.05 %ID/g. For the same compound, the tissue uptake at 1 h [1, 6] was 1.57 ± 0.55 %ID/g, the tissue uptake at 1 h ([1]; heart, 1 h Blocked (co-injection of 2-PMPA, 0.5 mg), read-out: Heart uptake) was 0.35 ± 0.06 %ID/g and the tissue uptake at 1 h [1, 7] was 2.9 ± 0.66 %ID/g. The tissue uptake at 1 h ([1]; kidneys, 1 h Blocked (co-injection of 2-PMPA, 0.5 mg), read-out: Kidneys uptake) was 4.29 ± 1.34 %ID/g, the tissue uptake at 1 h [1, 8] was 88.1 ± 17.4 %ID/g and the tissue uptake at 1 h ([1]; lacrimal glands, 1 h Blocked (co-injection of 2-PMPA, 0.5 mg), read-out: Lacrimal Glands uptake) was 0.07 ± 0.05 %ID/g. For the same compound, the tissue uptake at 1 h [1, 9] was 0.06 ± 0.03 %ID/g, the tissue uptake at 1 h ([1]; large intestine, 1 h Blocked (co-injection of 2-PMPA, 0.5 mg), read-out: Large Intestine uptake) was 0.25 ± 0.1 %ID/g and the tissue uptake at 1 h ([1]; large intestine, 1 h post-injection, read-out: Large Intestine uptake) was 1.11 ± 0.42 %ID/g. For the same compound, the tissue uptake at 1 h ([1]; liver, 1 h Blocked (co-injection of 2-PMPA, 0.5 mg), read-out: Liver uptake) was 0.59 ± 0.1 %ID/g, the tissue uptake at 1 h [1, 10] was 2.64 ± 0.57 %ID/g and the tissue uptake at 1 h ([1]; lncap tumor, 1 h Blocked (co-injection of 2-PMPA, 0.5 mg), read-out: LNCaP Tumor uptake) was 1.87 ± 0.46 %ID/g. For the same compound, the tissue uptake at 1 h [1, 11] was 6.21 ± 1.25 %ID/g, the tissue uptake at 1 h ([1]; lungs, 1 h Blocked (co-injection of 2-PMPA, 0.5 mg), read-out: Lungs uptake) was 0.81 ± 0.18 %ID/g and the tissue uptake at 1 h [1, 12] was 4.1 ± 0.71 %ID/g. It also gave a tissue uptake at 1 h ([1]; muscle, 1 h Blocked (co-injection of 2-PMPA, 0.5 mg), read-out: Muscle uptake) of 0.27 ± 0.18 %ID/g, a tissue uptake at 1 h [1, 13] of 0.9 ± 0.2 %ID/g and a tissue uptake at 1 h ([1]; pancreas, 1 h Blocked (co-injection of 2-PMPA, 0.5 mg), read-out: Pancreas uptake) of 0.27 ± 0.07 %ID/g. For the same compound, the tissue uptake at 1 h [1, 14] was 2.22 ± 0.66 %ID/g, the tissue uptake at 1 h ([1]; salivary glands, 1 h Blocked (co-injection of 2-PMPA, 0.5 mg), read-out: Salivary Glands uptake) was 0.35 ± 0.08 %ID/g and the tissue uptake at 1 h [1, 15] was 9.18 ± 2.36 %ID/g. The tissue uptake at 1 h ([1]; seminal gland, 1 h Blocked (co-injection of 2-PMPA, 0.5 mg), read-out: Seminal Gland uptake) was 0.76 ± 0.19 %ID/g, the tissue uptake at 1 h [1, 16] was 0.98 ± 0.42 %ID/g and the tissue uptake at 1 h ([1]; small intestine, 1 h Blocked (co-injection of 2-PMPA, 0.5 mg), read-out: Small Intestine uptake) was 1.83 ± 0.37 %ID/g. It also gave a tissue uptake at 1 h [1, 17] of 4.51 ± 0.87 %ID/g, a tissue uptake at 1 h ([1]; spleen, 1 h Blocked (co-injection of 2-PMPA, 0.5 mg), read-out: Spleen uptake) of 0.29 ± 0.03 %ID/g and a tissue uptake at 1 h [1, 18] of 22.1 ± 2.92 %ID/g. For the same compound, the tissue uptake at 1 h ([1]; stomach, 1 h Blocked (co-injection of 2-PMPA, 0.5 mg), read-out: Stomach uptake) was 0.14 ± 0.06 %ID/g, the tissue uptake at 1 h [1, 19] was 0.68 ± 0.17 %ID/g and the tissue uptake at 1 h ([1]; testes, 1 h Blocked (co-injection of 2-PMPA, 0.5 mg), read-out: Testes uptake) was 0.28 ± 0.07 %ID/g. For the same compound, the tissue uptake at 1 h [1, 20] was 0.92 ± 0.29 %ID/g, the tissue uptake at 1 h ([1]; thyroid, 1 h Blocked (co-injection of 2-PMPA, 0.5 mg), read-out: Thyroid uptake) was 0.33 ± 0.08 %ID/g and the tissue uptake at 1 h [1, 21] was 4.53 ± 0.74 %ID/g. For the same compound, the “Tumor:Muscle uptake ratio” value (LNCaP tumor xenografts; [22]) was 9.96 ± 3.13, the “Tumour:Blood uptake ratio” value (LNCaP tumor xenografts; [22]) was 2.21 ± 0.46 and the “Tumour:Bone uptake ratio” value (LNCaP tumor xenografts; [22]) was 8.46 ± 4.80. The “Tumour:Kidney uptake ratio” value (LNCaP tumor xenografts; [22]) was 0.45 ± 0.05, the “Tumor:Muscle uptake ratio” value (LNCaP tumor xenografts; 1 h post-injection) was 6.58 ± 1.38 and the “Tumour:Blood uptake ratio” value (LNCaP tumor xenografts; 1 h post-injection) was 8.41 ± 2.02. The “Tumour:Bone uptake ratio” value (LNCaP tumor xenografts; 1 h post-injection) was 9.31 ± 3.39 and the “Tumour:Kidney uptake ratio” value (LNCaP tumor xenografts; 1 h post-injection) was 0.07 ± 0.02.
